The text below walks through data of ChEMBL document CHEMBL5696442, “Discovery of type II inhibitors of TGFβ-activated kinase 1 (TAK1) and mitogen-activated protein kinase kinase kinase kinase 2 (MAP4K2)” (J Med Chem, 2015).

Active and inactive are the calls of the source. The rule behind the calls is not given here.

The target in assay [1] is T1, Serine/threonine-protein kinase ULK3 (Homo sapiens) (UniProt Q6PHR2).
T1 sequence (whole entry): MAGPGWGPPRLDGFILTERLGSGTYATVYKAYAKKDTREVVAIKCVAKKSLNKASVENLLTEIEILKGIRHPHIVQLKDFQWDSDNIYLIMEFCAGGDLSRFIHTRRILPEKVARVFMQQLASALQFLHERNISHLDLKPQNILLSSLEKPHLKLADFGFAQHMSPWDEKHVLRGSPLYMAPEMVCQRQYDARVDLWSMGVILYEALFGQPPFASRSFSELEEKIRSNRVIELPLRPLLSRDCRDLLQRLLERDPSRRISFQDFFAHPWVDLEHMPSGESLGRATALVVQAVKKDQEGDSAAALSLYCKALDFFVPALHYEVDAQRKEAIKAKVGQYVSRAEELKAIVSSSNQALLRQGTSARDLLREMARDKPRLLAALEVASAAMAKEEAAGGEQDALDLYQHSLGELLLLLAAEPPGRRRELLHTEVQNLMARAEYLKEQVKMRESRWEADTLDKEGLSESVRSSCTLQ
The experiment in a line: Inhibition of ULK3 Lys2 labeling site in human Huh-7 cell lysate at 1 uM by KiNativ Profiling analysis relative to control. It counts as subcellular.

The target in assay [2] is STE20/SPS1-related proline-alanine-rich protein kinase (Homo sapiens) (UniProt Q9UEW8). Nature of the assay: Inhibition of STLK3 Lys2 labeling site in human Huh-7 cell lysate at 1 uM by KiNativ Profiling analysis relative to control. It counts as subcellular.
For assay [3], the target named is Tyrosine-protein kinase CSK (Homo sapiens, UniProt P41240). The experiment in a line: Inhibition of CSK ACT labeling site harbouring VSDFGLTKEASSTQDTGK in human Huh-7 cells at 1 uM by KiNativ Profiling analysis relative to control. It counts as cell-based.
Tyrosine-protein kinase CSK, sequence (P41240 2-450 limits assumed): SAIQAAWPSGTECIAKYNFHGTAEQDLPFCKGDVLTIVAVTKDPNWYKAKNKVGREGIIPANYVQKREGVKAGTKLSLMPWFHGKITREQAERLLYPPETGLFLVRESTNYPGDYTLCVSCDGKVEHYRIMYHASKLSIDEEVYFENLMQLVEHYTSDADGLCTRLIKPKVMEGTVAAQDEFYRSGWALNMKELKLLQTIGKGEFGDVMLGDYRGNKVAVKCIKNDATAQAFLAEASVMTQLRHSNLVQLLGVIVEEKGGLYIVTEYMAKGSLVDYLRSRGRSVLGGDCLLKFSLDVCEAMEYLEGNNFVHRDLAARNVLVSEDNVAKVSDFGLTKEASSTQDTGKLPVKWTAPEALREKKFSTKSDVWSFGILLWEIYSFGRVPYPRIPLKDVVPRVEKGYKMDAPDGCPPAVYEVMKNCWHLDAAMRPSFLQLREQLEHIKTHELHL
The target of assay [4] is Cyclin-dependent kinase 2 (Homo sapiens) (UniProt P24941). The experiment in a line: Inhibition of CDK2 Lys2 labeling site harbouring VLHRDLKPQNLLINTEGAIK in human Huh-7 cells at 1 uM by KiNativ Profiling analysis relative to control. It counts as cell-based.
For assay [5], the target named is T2, NUAK family SNF1-like kinase 1 (Homo sapiens) (UniProt O60285).
T2 sequence (whole entry): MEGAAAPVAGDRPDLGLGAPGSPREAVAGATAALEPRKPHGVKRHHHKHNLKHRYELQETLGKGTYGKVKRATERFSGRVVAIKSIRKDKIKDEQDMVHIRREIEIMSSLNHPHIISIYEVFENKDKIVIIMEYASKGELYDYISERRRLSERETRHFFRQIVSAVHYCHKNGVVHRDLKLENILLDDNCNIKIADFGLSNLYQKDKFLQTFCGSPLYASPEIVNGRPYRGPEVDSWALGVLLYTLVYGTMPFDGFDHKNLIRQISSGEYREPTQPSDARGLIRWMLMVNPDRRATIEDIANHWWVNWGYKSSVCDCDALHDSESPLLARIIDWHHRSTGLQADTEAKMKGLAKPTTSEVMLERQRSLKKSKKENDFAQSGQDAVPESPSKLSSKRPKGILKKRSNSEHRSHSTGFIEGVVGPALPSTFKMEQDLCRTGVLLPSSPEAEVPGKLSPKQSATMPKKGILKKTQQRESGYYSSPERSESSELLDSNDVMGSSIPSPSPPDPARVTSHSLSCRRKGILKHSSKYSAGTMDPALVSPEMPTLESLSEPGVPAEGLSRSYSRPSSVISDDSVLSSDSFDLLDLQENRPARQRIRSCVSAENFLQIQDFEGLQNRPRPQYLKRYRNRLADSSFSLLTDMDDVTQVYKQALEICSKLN
Nature of the assay: Inhibition of NuaK1 Lys2 labeling site in human Huh-7 cell lysate at 1 uM by KiNativ Profiling analysis relative to control. It counts as subcellular.

Assay [6] deals with Rho-associated protein kinase 2 (Homo sapiens) (UniProt O75116). Nature of the assay: Inhibition of ROCK2 Lys2 labeling site in human Huh-7 cell lysate at 1 uM by KiNativ Profiling analysis relative to control. It counts as subcellular.
Rho-associated protein kinase 2 (Homo sapiens), sequence (O75116 whole entry, looked up): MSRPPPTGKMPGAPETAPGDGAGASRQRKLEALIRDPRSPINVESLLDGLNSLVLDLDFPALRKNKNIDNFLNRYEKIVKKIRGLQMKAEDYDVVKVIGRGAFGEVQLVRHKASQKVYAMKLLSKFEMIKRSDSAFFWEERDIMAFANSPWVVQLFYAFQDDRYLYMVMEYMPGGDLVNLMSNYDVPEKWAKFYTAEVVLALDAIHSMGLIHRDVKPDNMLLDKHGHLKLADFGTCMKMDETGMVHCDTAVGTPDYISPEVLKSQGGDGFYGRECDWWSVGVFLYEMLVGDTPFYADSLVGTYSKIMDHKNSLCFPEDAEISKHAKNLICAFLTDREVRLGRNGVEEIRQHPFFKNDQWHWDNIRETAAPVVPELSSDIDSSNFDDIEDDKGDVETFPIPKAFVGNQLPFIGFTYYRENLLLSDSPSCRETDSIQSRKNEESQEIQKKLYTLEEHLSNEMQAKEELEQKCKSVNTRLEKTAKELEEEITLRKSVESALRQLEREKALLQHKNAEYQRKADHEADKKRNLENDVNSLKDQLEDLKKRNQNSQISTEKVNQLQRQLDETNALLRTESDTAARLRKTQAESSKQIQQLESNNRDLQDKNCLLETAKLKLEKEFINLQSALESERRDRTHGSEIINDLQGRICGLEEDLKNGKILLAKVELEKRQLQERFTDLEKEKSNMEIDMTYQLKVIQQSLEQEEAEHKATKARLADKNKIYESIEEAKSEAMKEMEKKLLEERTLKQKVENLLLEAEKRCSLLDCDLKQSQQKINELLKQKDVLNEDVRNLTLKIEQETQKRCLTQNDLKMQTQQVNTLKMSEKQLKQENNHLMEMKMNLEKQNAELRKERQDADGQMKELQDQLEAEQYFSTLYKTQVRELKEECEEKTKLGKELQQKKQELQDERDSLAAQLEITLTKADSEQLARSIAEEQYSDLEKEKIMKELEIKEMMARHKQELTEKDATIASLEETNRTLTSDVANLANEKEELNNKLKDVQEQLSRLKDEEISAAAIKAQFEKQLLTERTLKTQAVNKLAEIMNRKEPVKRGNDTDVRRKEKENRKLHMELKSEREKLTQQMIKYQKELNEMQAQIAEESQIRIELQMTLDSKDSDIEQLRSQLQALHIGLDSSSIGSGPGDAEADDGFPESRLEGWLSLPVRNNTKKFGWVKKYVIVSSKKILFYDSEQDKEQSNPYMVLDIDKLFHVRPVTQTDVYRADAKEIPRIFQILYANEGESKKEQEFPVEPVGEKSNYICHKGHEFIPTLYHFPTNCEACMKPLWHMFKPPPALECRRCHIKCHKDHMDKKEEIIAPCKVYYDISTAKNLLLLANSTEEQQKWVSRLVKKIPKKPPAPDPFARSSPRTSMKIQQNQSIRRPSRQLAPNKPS
Assay [7] has as its target Cyclin-dependent kinase 9 (Homo sapiens) (UniProt P50750). The experiment in a line: Inhibition of CDK9 Lys2 labeling site in human Huh-7 cell lysate at 1 uM by KiNativ Profiling analysis relative to control. It counts as subcellular.
The subject of assay [8] is Receptor-type tyrosine-protein kinase FLT3 (Homo sapiens), P36888 [K663Q]. Nature of the assay: Inhibition of FLT3 K663Q mutant (unknown origin) at 1 uM by Ambit Kinomescan binding assay relative to control; values are per cent of control.
In assay [9] the target is Angiopoietin-1 receptor (Homo sapiens) (UniProt Q02763). The experiment in a line: Inhibition of TIE2 (unknown origin) at 1 uM by Ambit Kinomescan binding assay relative to control.
Angiopoietin-1 receptor (Homo sapiens), sequence (Q02763 whole entry, canonical isoform): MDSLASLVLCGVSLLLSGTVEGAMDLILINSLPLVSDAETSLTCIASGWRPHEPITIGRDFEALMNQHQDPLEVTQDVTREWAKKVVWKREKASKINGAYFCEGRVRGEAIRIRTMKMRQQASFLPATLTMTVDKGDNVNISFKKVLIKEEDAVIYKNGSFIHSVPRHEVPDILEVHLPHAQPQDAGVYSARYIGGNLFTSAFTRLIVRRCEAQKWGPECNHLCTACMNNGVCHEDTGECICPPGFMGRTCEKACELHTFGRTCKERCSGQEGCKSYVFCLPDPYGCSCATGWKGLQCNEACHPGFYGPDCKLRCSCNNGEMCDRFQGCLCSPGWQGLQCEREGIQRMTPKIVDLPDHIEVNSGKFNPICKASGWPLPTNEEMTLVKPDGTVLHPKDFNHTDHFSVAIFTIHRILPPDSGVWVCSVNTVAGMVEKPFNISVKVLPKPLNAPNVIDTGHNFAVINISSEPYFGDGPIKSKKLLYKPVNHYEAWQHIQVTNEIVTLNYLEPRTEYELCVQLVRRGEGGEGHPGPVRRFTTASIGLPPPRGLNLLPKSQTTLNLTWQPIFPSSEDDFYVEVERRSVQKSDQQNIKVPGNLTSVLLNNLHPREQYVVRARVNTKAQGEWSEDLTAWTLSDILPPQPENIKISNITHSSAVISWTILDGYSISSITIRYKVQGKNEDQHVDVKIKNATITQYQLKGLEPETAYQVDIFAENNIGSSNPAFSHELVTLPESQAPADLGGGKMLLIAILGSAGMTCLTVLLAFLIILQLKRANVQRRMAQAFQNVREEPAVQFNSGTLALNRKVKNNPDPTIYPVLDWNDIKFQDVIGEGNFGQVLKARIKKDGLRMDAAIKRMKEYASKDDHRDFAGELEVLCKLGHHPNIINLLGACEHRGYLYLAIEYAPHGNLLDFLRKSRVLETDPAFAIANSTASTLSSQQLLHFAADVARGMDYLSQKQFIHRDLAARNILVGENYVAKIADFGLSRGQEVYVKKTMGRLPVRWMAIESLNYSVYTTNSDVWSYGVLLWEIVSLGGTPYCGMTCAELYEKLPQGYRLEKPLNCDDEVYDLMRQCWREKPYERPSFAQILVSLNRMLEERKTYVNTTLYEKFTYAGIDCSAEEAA
The target of assay [10] is T3, Phosphorylase b kinase gamma catalytic chain, liver/testis isoform (Homo sapiens) (UniProt P15735).
T3 sequence (whole entry): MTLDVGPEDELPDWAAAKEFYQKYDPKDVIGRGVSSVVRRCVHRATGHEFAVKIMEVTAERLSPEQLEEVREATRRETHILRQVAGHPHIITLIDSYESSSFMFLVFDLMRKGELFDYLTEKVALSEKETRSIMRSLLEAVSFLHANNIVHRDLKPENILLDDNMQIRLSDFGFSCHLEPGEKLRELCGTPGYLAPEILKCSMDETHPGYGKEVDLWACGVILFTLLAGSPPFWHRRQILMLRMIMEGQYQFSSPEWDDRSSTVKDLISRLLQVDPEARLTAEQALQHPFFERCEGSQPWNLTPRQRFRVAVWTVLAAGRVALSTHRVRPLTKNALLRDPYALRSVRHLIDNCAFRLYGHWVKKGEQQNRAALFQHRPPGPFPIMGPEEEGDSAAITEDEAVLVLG
Nature of the assay: Inhibition of PHKG2 (unknown origin) at 1 uM by Ambit Kinomescan binding assay relative to control; values are per cent of control.

Assay [11] has as its target Receptor-type tyrosine-protein kinase FLT3 (Homo sapiens) (UniProt P36888). Nature of the assay: Inhibition of FLT3 (unknown origin) at 1 uM by Ambit Kinomescan binding assay relative to control; values are per cent of control.
Assay [12] concerns the target Serine/threonine-protein kinase 26 (Homo sapiens) (UniProt Q9P289). Nature of the assay: Inhibition of MST4 ATP labeling site in human Huh-7 cells at 10 uM by KiNativ Profiling analysis relative to control. It counts as cell-based.
The target in assay [13] is Serine/threonine-protein kinase MRCK gamma (Homo sapiens) (UniProt Q6DT37). The experiment in a line: Inhibition of DMPK2 (unknown origin) at 10 uM by Ambit Kinomescan binding assay.
Assay [14] addresses T1, Serine/threonine-protein kinase ULK3 (Homo sapiens). The experiment in a line: Inhibition of ULK3 K1 labeling site in human Huh-7 cells at 10 uM by KiNativ Profiling analysis relative to control. It counts as cell-based.
Assay [15] addresses Testis-specific serine/threonine-protein kinase 1 (Homo sapiens) (UniProt Q9BXA7). The experiment in a line: Inhibition of TSSK1B (unknown origin) at 10 uM by Ambit Kinomescan binding assay.
For assay [16], the target named is eIF-2-alpha kinase GCN2 (Homo sapiens) (UniProt Q9P2K8). Nature of the assay: Inhibition of GCN2 K2 labeling site in human Huh-7 cells at 1 uM by KiNativ Profiling analysis relative to control. It counts as cell-based.

Serine/threonine-protein kinase 26 (Homo sapiens), sequence (Q9P289 2-416 limits assumed): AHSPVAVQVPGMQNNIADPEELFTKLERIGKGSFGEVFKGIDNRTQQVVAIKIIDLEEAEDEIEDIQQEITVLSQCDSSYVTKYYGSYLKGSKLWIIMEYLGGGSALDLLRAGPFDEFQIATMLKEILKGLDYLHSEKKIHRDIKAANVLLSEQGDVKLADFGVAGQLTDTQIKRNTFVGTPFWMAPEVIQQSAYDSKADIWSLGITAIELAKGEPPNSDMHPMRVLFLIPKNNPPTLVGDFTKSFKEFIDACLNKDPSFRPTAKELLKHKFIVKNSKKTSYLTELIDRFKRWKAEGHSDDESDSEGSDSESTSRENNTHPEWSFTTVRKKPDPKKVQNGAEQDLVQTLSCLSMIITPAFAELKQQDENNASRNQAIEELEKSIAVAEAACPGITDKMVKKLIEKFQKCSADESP
Testis-specific serine/threonine-protein kinase 1 (Homo sapiens), sequence (Q9BXA7 whole entry): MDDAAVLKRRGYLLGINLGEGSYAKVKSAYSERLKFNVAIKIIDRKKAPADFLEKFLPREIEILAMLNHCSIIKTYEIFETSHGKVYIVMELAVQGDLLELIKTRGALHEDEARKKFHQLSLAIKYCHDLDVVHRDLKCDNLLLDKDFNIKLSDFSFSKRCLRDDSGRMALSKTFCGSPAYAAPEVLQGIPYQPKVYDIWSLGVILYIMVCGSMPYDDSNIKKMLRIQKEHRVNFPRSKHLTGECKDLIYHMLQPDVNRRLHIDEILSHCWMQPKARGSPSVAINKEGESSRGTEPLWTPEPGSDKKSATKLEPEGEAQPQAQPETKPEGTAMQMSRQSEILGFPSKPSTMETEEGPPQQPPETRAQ
Cyclin-dependent kinase 9 (Homo sapiens), sequence (P50750 whole entry): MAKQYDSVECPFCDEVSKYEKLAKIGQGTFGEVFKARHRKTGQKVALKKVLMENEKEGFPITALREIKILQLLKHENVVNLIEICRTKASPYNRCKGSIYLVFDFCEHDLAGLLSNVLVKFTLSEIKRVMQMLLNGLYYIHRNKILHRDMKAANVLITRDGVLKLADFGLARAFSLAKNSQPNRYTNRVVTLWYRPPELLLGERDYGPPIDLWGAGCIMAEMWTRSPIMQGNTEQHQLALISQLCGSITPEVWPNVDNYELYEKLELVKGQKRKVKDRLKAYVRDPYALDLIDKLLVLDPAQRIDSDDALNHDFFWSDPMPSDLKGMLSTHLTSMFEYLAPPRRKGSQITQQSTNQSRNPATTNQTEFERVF

In the case of `CNc1cc(Oc2cc(C(=O)Nc3cc(N4CCN(C)CC4)cc(C(F)(F)F)c3)ccc2C)ncn1`, the inhibition in assay [1] is 2.3%; in assay [2], 9.8%; in assay [3], 16.6%; in assay [4], 29.3%; in assay [5] it was -8.6%; in assay [6], 2.7%. The inhibition in [7] was determined as 11.9%.
Take `CCN1CCN(Cc2ccc(NC(=O)c3ccc(C)c(/C=C/c4cnc5[nH]ccc5c4OC)c3)cc2C(F)(F)F)CC1`: the values for the residual activity in assay [8], in [10] and in assay [11] were 0.15%, 100% and 0.15%, respectively. Also, the inhibition in [9] was 0%.
In the case of `CCN1CCN(Cc2ccc(NC(=O)c3ccc(C)c(Oc4ccnc5[nH]ccc45)c3)cc2C(F)(F)F)CC1`, the inhibition in assay [12] stood at 25.3%; in assay [14], 48%; in assay [16], 12%. The inhibition result in assay [13] and in assay [15] was “inactive” throughout.

What is called inhibition is the relative decrease from the control value, in per cent. What is called residual activity is what remains of the control signal, in per cent.
